Results as given in US11807627B2, “Morphic forms of complement factor D inhibitors” (priority 2018, dated 2023).
In brackets after ≈: the same amount, converted by molar mass.

Tests used:
Format in all cases: physicochemical
[1] = Compression of Form A (2.5 KN, 5.0 KN); conditions: initial and repeat
Description: Compound 3 Form A material was compressed using a specac press. Approximately 125 mg of Compound 3 Form A was weighed into a 20 mL glass vial. The material was then transferred into an IR die and pressed to 2.5 KN for approx. 5 seconds. The resulting material was (ground lightly to break the disk that was returned and) analyzed by XRPD and PLM. The material was then placed back into the die and pressed to 5.0 KN (for approx. 5 seconds). The resulting material was ground lightly to break the disk that was returned and analyzed by XRPD and PLM. The procedure detail was repeated, using separate batches of solid for 2.5 KN and 5.0 KN experiments. XRPD analysis and PLM analysis was completed on the material returned after pressing. All samples returned Form A material by XRPD and consisted of small birefringent particles with no clear morphology by PLM (FIG. 35A-FIG. 35C).

[2] = Solubility in selected media (FaSSIF, FeSSIF, FaSSGF, pH 4 citrate, pH 6.8 phosphate)
Description: Solubility within selected media (FaSSIF, FeSSIF, FaSSGF, pH 4 citrate and pH 6.8 phosphate) was measured to be <0.01 mg/mL.
The pH 4 citrate buffer was prepared by dissolving sodium citrate (987 mg) and citric acid (1.28 g) in 100 mL H2O. The pH was adjusted to 4. The pH 6.8 phosphate buffer was prepared by dissolving dibasic sodium phosphate dihydrate (873 mg) and monobasic sodium phosphate monohydrate (708 mg) in 100 mL H2O. The pH was adjusted to 6.8. The FaSSIF media was prepared with sodium hydroxide (108 mg), sodium chloride (1.55 g) and monobasic sodium phosphate dihydrate (1.12 g) in H2O (0.25 L) and the pH adjusted to 6.5. FaSSIF/FeSSIF/FaSSGF (0.56 g) was dissolved in the buffer and mixed until opalescent. The FeSSIF media was prepared by dissolving sodium hydroxide (1.01 g), sodium chloride (2.96 g) and glacial acetic acid (2.97 g) in H2O (0.25 L) and the pH adjusted to pH 5. FaSSIF/FeSSIF/FaSSGF (2.81 g) was dissolved in the buffer and thoroughly mixed. The FaSSGF media was prepared by dissolving FaSSIF/FeSSIF/FaSSGF (0.06 g) in a solution of sodium chloride (2.00 g) dissolved in H2O (1 L) and mixing thoroughly.

[3] = Enabling form study: solubility from RT slurry in solvents (Table 2); conditions: organic solvent or mixture, thermodynamic from solid
Description: (§1) A solution of Compound 3 and solvent/solvent system of interest was prepared. Solids persisted in solution. The samples were placed onto a stir plate at ambient (RT) or elevated (ET) temperatures. The samples were monitored to ensure that solids persisted during the slurry process. The solids were collected via vacuum filtration and dried under ambient conditions.
An enabling form study was also carried out (Table 2).

[4] = Solid state stress testing (temperature, humidity, storage, photostability)
[5] = pH experiments and SIF/SGF/FaSSIF/FeSSIF solubility (Examples 3 and 4)
[6] = Process for the formation of Form J: XRPD result after each step (Table 22)
Description: A polymorph study was completed for Form J. The production of Form J was completed by temperature cycling amorphous Compound 3 in acetronitrile (Form B) with drying the material under ambient conditions for about 24 hours.

[7] = Interconversion experiments: competitive slurries (Example 2, Table 6); conditions: Forms A and G vs Form B, ethyl acetate, ambient and approximately 50° C.
Description: as §1, with “conditions. […] At ambient temperature, Forms B and M are both present after almost a week of slurrying.” for “conditions.”

Grinding study = conditions: pestle and mortar
Description: 10 mg of the appropriate Compound 3 material (detailed in Table 28) was weighed into separate HPLC vials. The solids were then ground using a pestle and mortar. Resulting materials were analyzed by XRPD (FIG. 47). From samples where mixtures of forms were used, mixtures of forms were recovered. Where all 3 forms were used, Form A was not returned, although it is possible that the already small particle size of Form A was reduced further by grinding and therefore not detected by XRPD analysis.

[8] = Compression study (25 kN, 50 kN; Example 13)
Description: A mixture of Form A ±Form B and Form B were compressed using a specac IR die press. A total of approximately 100 mg (50 mg A ±50 mg B and 100 mg B) were weighed into separate 2 mL glass vials. The solids were then placed into the IR dies and pressed under 25 kN and 50 kN for about 10-15 seconds. After pressing to 25 kN, material was removed from the dies and ground slightly. A sub-sample was taken and XRPD analysis was collected. Material was then placed back into the dies and pressed to 50 kN. After pressing to 50 kN, material was removed from the dies and ground slightly before collecting XRPD analysis. Both samples observed a small color change from white to off-white after being pressed to 25 kN. […] No single form was observed when compressing a mixture of Forms A and form B material, but a decrease in crystallinity was observed when exerting 50 kN on the mixture.

[9] = Polarized light microscopy (PLM); conditions: Table 27A
Description: The presence of crystallinity (birefringence) was determined using an Olympus BX50 microscope, equipped with cross-polarizing lenses and a Motic camera. Images were captured using Motic Images Plus 2.0. All images were recorded using the 20×objective, unless otherwise stated. All samples were prepared using silicone oil and covered with a cover slip before PLM analysis was completed.

## CC(=O)c1nn(CC(=O)N2[C@H](C(=O)Nc3nc(Br)ccc3C)C[C@@]3(C)C[C@@H]23)c2ccc(-c3cnc(C)nc3)cc12 [Compound 3 Form A]
[1]; 2.5 KN
  Compression: XRPD: Form A
[1]; 5.0 KN
  Compression: XRPD: Form A
[2]; FaSSGF
  XRPD Results after stirring in media: Form A
  solubility: <10 µg/mL
[2]; FaSSGF, fassgf or other biorelevant, thermodynamic from solid, read-out: Solubility: HPLC Result
  solubility: < 10 µg/mL
[2]; FaSSIF
  XRPD Results after stirring in media: Form A
  solubility: <10 µg/mL
[2]; FaSSIF, pH 6.5, fassif, thermodynamic from solid, read-out: Solubility: HPLC Result
  solubility: < 10 µg/mL
[2]; FeSSIF
  XRPD Results after stirring in media: Form A
  solubility: <10 µg/mL
[2]; FeSSIF, pH 5, fessif, thermodynamic from solid, read-out: Solubility: HPLC Result
  solubility: < 10 µg/mL
[2]; aqueous buffer, thermodynamic from solid, FaSSIF, FeSSIF, FaSSGF, pH 4 citrate and pH 6.8 phosphate, read-out: Solubility within selected media
  solubility: < 10 µg/mL
[2]; aqueous buffer, thermodynamic from solid, pH 6.8 phosphate buffer, read-out: Solubility: HPLC Result
  solubility: < 10 µg/mL
[2]; pH 4
  solubility: Not detected
[2]; pH 4 citrate buffer
  Solubility: HPLC Result: Not detected
  XRPD Results after stirring in media: Form A
[2]; pH 6.8 phosphate buffer
  XRPD Results after stirring in media: Form A
[2]; pH 6.8 phosphate buffer, pH 6.8, aqueous buffer, thermodynamic from solid, read-out: Solubility
  solubility: < 10 µg/mL

## CC(=O)c1nn(CC(=O)N2[C@H](C(=O)Nc3nc(Br)ccc3C)C[C@@]3(C)C[C@@H]23)c2ccc(-c3cnc(C)nc3)cc12 [Compound 3, (1R,3S,5R)-2-(2-(3-acetyl-5-(2-methylpyrimidin-5-yl)-1H-indazol-1-yl)acetyl)-N-(6-bromo-3-methylpyridin-2-yl)-5-methyl-2-azabicyclo[3.1.0]hexane-3-carboxamide]
[3]; ethyl acetate, EtOAc
  solubility: ~14500 µg/mL (≈ 24100 µM)
[3]; isopropanol, IPA
  solubility: ~5600 µg/mL (≈ 9290 µM)
[3]; MTBE
  solubility: ~1200 µg/mL (≈ 1990 µM)
[3]; Toluene
  solubility: ~13600 µg/mL (≈ 22600 µM)
[4]
  Solid State Stress Testing: Room Temperature storage: No degradation
[4]; 40° C./75% RH
  Solid State Stress Testing: Humidity: No degradation
[4]; 105° C. - 24 hr
  Solid State Stress Testing: Elevated temperature: No degradation
[4]; exposure to UV visible
  Solid State Stress Testing: Photostability: No light senstitivity
[5]; 1.2 pH
  pH Experiments (solubility): 389.37 μg/mL
  pH Experiments: stability in the medium: degrades
[5]; 4.0 pH
  pH Experiments (solubility): 56.68 μg/mL
[5]; 6.0 pH
  pH Experiments (solubility): 54.60 μg/mL
[5]; 7.4 pH
  pH Experiments (solubility): 53.41 μg/mL
[5]; FaSSIF, read-out: FaSSIF solubility
  solubility: 75.4 µg/mL (≈ 125 µM)
[5]; FeSSIF, read-out: FeSSIF solubility
  solubility: 153 µg/mL (≈ 254 µM)
[5]; SGF pH = 1.6
  pH Experiments (solubility): 96.35 μg/mL
[5]; SIF pH = 6.5
  pH Experiments (solubility): 80.77 μg/mL
[6]; Step 1: Lyophilization
  XRPD result: Amorphous
[6]; Step 5: Re-slurry in 5 mL acetonitrile
  XRPD result: Form J
[6]; Step 8: Re-slurry in 1.5 mL acetonitrile 18 hours
  XRPD result: Form J
[6]; Step 11: Re-slurry 4 ml acetonitrile 18 hours
  XRPD result: Form J
[6]; Step 12: Air drying 2, 5 and 24 hours
  XRPD result: Form J
[6]; Step 13: After 5 days storage under ambient conditions
  XRPD result: Amorphous
[6]; Step 14: Re-slurry 4 ml acetonitrile 18 hours
  XRPD result: Form J
[6]; Step 15: Isolation using Buchner funnel (10-15 seconds on filter bed)
  XRPD result: Amorphous
[6]; Step 16: Re-slurry 4 ml acetonitrile 4 hours
  XRPD result: Form J
[6]; Step 17: Isolation using centrifuge filtration
  XRPD result: Form J
[6]; Step 18: Ambient drying 18 hours
  XRPD result: Form J

## CC(=O)c1nn(CC(=O)N2[C@H](C(=O)Nc3nc(Br)ccc3C)C[C@@]3(C)C[C@@H]23)c2ccc(-c3cnc(C)nc3)cc12 [Form B]
[2]; FaSSGF
  solubility: <10 µg/mL
[2]; FaSSIF
  solubility: <10 µg/mL
[2]; FeSSIF
  solubility: <10 µg/mL
[2]; pH 4, pH 6.8, FaSSIF, FeSSIF and FaSSGF media
  Solubility in selected media: poorly soluble
[7]
  Relative stability in competitive slurry: more stable form
Grinding study
  Form change upon grinding (XRPD): did not change form
[8]; 25 kN and 50 kN
  Form change under compression (XRPD): did not change under pressure
[8]; Pressure Exerted 25 kN
  XRPD Results: Form B
[8]; Pressure Exerted 50 kN
  XRPD Results: Form B
[9]
  PLM: Birefringent rods
